The results in this text go back to ChEMBL document CHEMBL4118243, “Synthesis, molecular modelling studies and biological evaluation of new oxoeicosanoid receptor 1 agonists” (Bioorg Med Chem, 2018).

The structures appear in SMILES notation. Some results are limits rather than exact numbers.

Assay [1] concerns the target T1, Oxoeicosanoid receptor 1 (Homo sapiens, UniProt Q8TDS5). As to the kind of experiment: Agonist activity at human PK-tagged OXER1 expressed in CHOK1 cells assessed as EA-tagged beta-arrestin recruitment by beta-galactosidase enzyme fragment complementation assay relative to control. The class given is functional, cell-based. For orientation: Activated receptors often draw arrestin, which recruitment assays turn into a signal.

The target of assay [2] is T1, Oxoeicosanoid receptor 1. As to the kind of experiment: Agonist activity at human PK-tagged OXER1 expressed in CHOK1 cells assessed as EA-tagged beta-arrestin recruitment by beta-galactosidase enzyme fragment complementation assay. It is filed as functional, cell-based.

T1 sequence (Q8TDS5 whole entry, the tested form may be a part): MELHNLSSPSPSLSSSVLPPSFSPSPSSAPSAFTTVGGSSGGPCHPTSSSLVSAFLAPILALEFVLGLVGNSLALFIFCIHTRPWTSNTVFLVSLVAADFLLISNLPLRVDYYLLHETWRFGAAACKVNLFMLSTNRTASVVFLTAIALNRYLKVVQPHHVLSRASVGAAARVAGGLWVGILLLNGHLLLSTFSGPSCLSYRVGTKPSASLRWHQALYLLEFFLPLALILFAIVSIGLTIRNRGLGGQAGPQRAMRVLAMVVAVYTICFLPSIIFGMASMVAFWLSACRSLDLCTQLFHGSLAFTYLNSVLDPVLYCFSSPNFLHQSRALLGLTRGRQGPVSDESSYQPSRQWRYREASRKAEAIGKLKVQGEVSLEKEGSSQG

Turning to `CC/C=C\C/C=C\C/C=C\C/C=C\C=C\C(=O)CCCC(=O)OC`, the Emax (usually the maximal effect, on the per cent scale that the assay sets) on Oxoeicosanoid receptor 1 [1] amounted to 119%. The EC50 (in general, the midpoint of the concentration-response curve) on Oxoeicosanoid receptor 1 [2] was found to be 2080 nM.
On the same counts, the results for `CC/C=C\C/C=C\C/C=C\C/C=C\C=C\C(=O)CCCC(=O)O` are 80% and 380 nM.
On the same counts, the results for `CCCCC/C=C\C/C=C\C/C=C\C=C\C(=O)CCCC(=O)OC` are 133% and 1540 nM.
For `CC/C=C\C/C=C\C/C=C\C/C=C\C/C=C\C=C\C(=O)CCC(=O)OC` the same measures were 64% and above 100000 nM.
For `CCCCC/C=C\C/C=C\C/C=C\C=C\C(=O)CCCC(=O)O` [5-OXO-ETE], on Oxoeicosanoid receptor 1 [1], the Emax is 100%. At Oxoeicosanoid receptor 1 [2], the half-maximal effective concentration (EC50) was 220 nM.
Consider `CC/C=C\C/C=C\C/C=C\C/C=C\C/C=C\C=C\C(=O)CCC(=O)O`, for which, on Oxoeicosanoid receptor 1 [1], the Emax came out at 23%. In addition, the EC50 at Oxoeicosanoid receptor 1 [2] is above 100000 nM.
